Bridge positions count the residues as written; N and C are the ends. Square brackets hold non-standard residues; d marks the D form. Peptide text beside a SMILES is read from it. * marks the point of attachment. DOTA = O=C(O)CN1CCN(CC(=O)O)CCN(CC(=O)*)CCN(CC(=O)O)CC1; 1Nal = N[C@@H](Cc1cccc2ccccc12)C(=O)O; 2Nal = N[C@@H](Cc1ccc2ccccc2c1)C(=O)O; NMeF = CN[C@@H](Cc1ccccc1)C(=O)O; αMeF = C[C@](N)(Cc1ccccc1)C(=O)O; Chg = N[C@H](C(=O)O)C1CCCCC1; αMeP = C[C@@]1(C(=O)O)CCCN1; dNle = CCCC[C@@H](N)C(=O)O; NMeC = CN[C@@H](CS)C(=O)O; dNMeA = CN[C@H](C)C(=O)O

The assay addresses T1, human DLL3 (Homo sapiens, UniProt Q9NYJ7).
T1 construct: biotin (biotinylated)
T1 sequence (Q9NYJ7 27-618): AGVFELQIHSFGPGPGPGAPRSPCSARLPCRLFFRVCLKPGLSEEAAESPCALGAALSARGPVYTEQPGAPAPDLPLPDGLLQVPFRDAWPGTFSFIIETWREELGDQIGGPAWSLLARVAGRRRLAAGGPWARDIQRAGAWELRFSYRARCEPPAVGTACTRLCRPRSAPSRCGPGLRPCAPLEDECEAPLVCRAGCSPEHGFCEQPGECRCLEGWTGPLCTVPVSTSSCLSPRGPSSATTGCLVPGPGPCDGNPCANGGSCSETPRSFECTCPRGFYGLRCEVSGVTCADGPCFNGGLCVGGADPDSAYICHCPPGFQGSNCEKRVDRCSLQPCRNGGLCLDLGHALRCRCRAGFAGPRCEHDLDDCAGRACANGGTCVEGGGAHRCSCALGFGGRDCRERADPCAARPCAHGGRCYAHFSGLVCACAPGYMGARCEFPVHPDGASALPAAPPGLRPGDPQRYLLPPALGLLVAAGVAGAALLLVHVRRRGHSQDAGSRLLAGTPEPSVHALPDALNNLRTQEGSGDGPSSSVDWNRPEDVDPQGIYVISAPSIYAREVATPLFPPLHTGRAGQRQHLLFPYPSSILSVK
Briefly: Affinity determination by Surface Plasmon Resonance (SPR), Biacore, 1:1 binding model. Conditions: biotinylated human DLL3 on streptavidin chip, 25° C.; NB = nonbinding. In outline:
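SPR with biotinylated human DLL3 captured on a streptavidin chip, with a reference surface subtracted. Samples were injected at several concentrations at 100 μL/min in phosphate buffer with 137 mM NaCl, 2.7 mM KCl, 0.05% P20 and 2% DMSO. Kinetic and affinity constants came from a 1:1 binding fit.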
A general note: In SPR one partner is held on a chip, and binding of the other changes the refractive index at the surface.
For the compound `CC(=O)N[C@H](C(=O)N[C@@H](CO)C(=O)N[C@@H](CC(=O)O)C(=O)N[C@H]1CSSC[C@@H](C(=O)N2CCC[C@@]2(C)C(=O)N[C@@H](Cc2ccccc2)C(=O)N[C@@H](CC(=O)O)C(=O)N[C@H](CCCCNC(=O)CN2CCN(CC(=O)O)CCN(CC(=O)O)CCN(CC(=O)O)CC2)C(N)=O)NC(=O)[C@H](CC(N)=O)NC(=O)[C@H](Cc2c[nH]c3ccccc23)NC(=O)[C@H](CCC(N)=O)NC(=O)[C@H](CC(C)C)NC(=O)[C@H](Cc2cccc3ccccc23)NC1=O)C1CCCCC1` [compound 95, Ac-(Chg)-S-D-C(3)-(1Nal)-L-Q-W-N-C(3)-(aMe-P)-F-D-D-Lys(DOTA)-CONH2] (Ac-[Chg]SDC[1Nal]LQWNC[αMeP]FD[dK](DOTA)-NH2; disulfide 4-10), the affinity, expressed as Kd, was 0.29 nM.
In the case of `CC(=O)N[C@H](C(=O)N[C@@H](CO)C(=O)N[C@@H](CC(=O)O)C(=O)N[C@H]1CSSC[C@@H](C(=O)N2CCC[C@H]2C(=O)N[C@@H](Cc2ccccc2)C(=O)N[C@@H](CC(=O)O)C(N)=O)NC(=O)[C@H](CC(N)=O)NC(=O)[C@H](Cc2c[nH]c3ccccc23)NC(=O)[C@H](CCC(N)=O)NC(=O)[C@H](CC(C)C)NC(=O)[C@H](CCCCNC(=O)CN2CCN(CC(=O)O)CCN(CC(=O)O)CCN(CC(=O)O)CC2)NC1=O)C1CCCCC1` [compound 97, Ac-(Chg)-S-D-C(3)-[L-Lys(DOTA)]-L-Q-W-N-C(3)-P-F-D-CONH2] (Ac-[Chg]SDCK(DOTA)LQWNCPFD-NH2; disulfide 4-10), the Kd (usually the free concentration of one partner at which half of the binding sites on the other are occupied at equilibrium, for simple one-to-one binding) is greater than 100 nM.
With `CC(=O)N[C@H](C(=O)N[C@@H](CO)C(=O)N[C@@H](CC(=O)O)C(=O)N[C@H]1CSSC[C@@H](C(=O)N2CCC[C@H]2C(=O)N[C@@H](Cc2ccccc2)C(=O)N[C@@H](CC(=O)O)C(N)=O)NC(=O)[C@H](CC(N)=O)NC(=O)[C@H](CCCCNC(=O)CN2CCN(CC(=O)O)CCN(CC(=O)O)CCN(CC(=O)O)CC2)NC(=O)[C@H](CCC(N)=O)NC(=O)[C@H](CC(C)C)NC(=O)[C@H](Cc2c[nH]c3ccccc23)NC1=O)C1CCCCC1` [compound 99, Ac-(Chg)-S-D-C(3)-W-L-Q-[L-Lys(DOTA)]-N-C(3)-P-F-D-CONH2] (Ac-[Chg]SDCWLQK(DOTA)NCPFD-NH2; disulfide 4-10) the figure was greater than 100 nM; with `CC(=O)N[C@H](C(=O)N[C@@H](CO)C(=O)N[C@@H](CC(=O)O)C(=O)N[C@H]1CSSC[C@@H](C(=O)N2CCC[C@H]2C(=O)N[C@@H](Cc2ccccc2)C(=O)N[C@@H](CC(=O)O)C(N)=O)NC(=O)[C@H](CCCCNC(=O)CN2CCN(CC(=O)O)CCN(CC(=O)O)CCN(CC(=O)O)CC2)NC(=O)[C@H](Cc2c[nH]c3ccccc23)NC(=O)[C@H](CCC(N)=O)NC(=O)[C@H](CC(C)C)NC(=O)[C@H](Cc2c[nH]c3ccccc23)NC1=O)C1CCCCC1` [compound 100, Ac-(Chg)-S-D-C(3)-W-L-Q-W-[L-Lys(DOTA)]-C(3)-P-F-D-CONH2] (Ac-[Chg]SDCWLQWK(DOTA)CPFD-NH2; disulfide 4-10), greater than 300 nM; with `CC(=O)N[C@H](C(=O)N[C@@H](CO)C(=O)N[C@@H](CC(=O)O)C(=O)N[C@H]1CSSC[C@@H](C(=O)N[C@@H](CCCCNC(=O)CN2CCN(CC(=O)O)CCN(CC(=O)O)CCN(CC(=O)O)CC2)C(=O)N[C@@H](Cc2ccccc2)C(=O)N[C@@H](CC(=O)O)C(N)=O)NC(=O)[C@H](CC(N)=O)NC(=O)[C@H](Cc2c[nH]c3ccccc23)NC(=O)[C@H](CCC(N)=O)NC(=O)[C@H](CC(C)C)NC(=O)[C@H](Cc2c[nH]c3ccccc23)NC1=O)C1CCCCC1` [compound 101, Ac-(Chg)-S-D-C(3)-W-L-Q-W-N-C(3)-[L-Lys(DOTA)]-F-D-CONH2] (Ac-[Chg]SDCWLQWNCK(DOTA)FD-NH2; disulfide 4-10), greater than 300 nM.
As for `CC(=O)N[C@H](C(=O)N[C@@H](CO)C(=O)N[C@@H](CC(=O)O)C(=O)N[C@H]1CSSC[C@@H](C(=O)N2CCC[C@H]2C(=O)N[C@@H](CCCCNC(=O)CN2CCN(CC(=O)O)CCN(CC(=O)O)CCN(CC(=O)O)CC2)C(=O)N[C@@H](CC(=O)O)C(N)=O)NC(=O)[C@H](CC(N)=O)NC(=O)[C@H](Cc2c[nH]c3ccccc23)NC(=O)[C@H](CCC(N)=O)NC(=O)[C@H](CC(C)C)NC(=O)[C@H](Cc2c[nH]c3ccccc23)NC1=O)C1CCCCC1` [compound 102, Ac-(Chg)-S-D-C(3)-W-L-Q-W-N-C(3)-P-[L-Lys(DOTA)]-D-CONH2] (Ac-[Chg]SDCWLQWNCPK(DOTA)D-NH2; disulfide 4-10), the Kd was greater than 100 nM.
The same measure for `CCCC[C@@H](NC(C)=O)C(=O)N[C@@H](CO)C(=O)N[C@@H](CC(=O)O)C(=O)N[C@H]1CSSC[C@@H](C(=O)N2CCC[C@H]2C(=O)N[C@@H](Cc2ccccc2)C(=O)N[C@@H](CC(=O)O)C(=O)N[C@H](CCCCNC(=O)CN2CCN(CC(=O)O)CCN(CC(=O)O)CCN(CC(=O)O)CC2)C(N)=O)NC(=O)[C@H](CC(N)=O)NC(=O)[C@H](Cc2c[nH]c3ccccc23)NC(=O)[C@H](CCC(N)=O)NC(=O)[C@H](CC(C)C)NC(=O)[C@H](Cc2cccc3ccccc23)NC1=O` [compound 103, Ac-(D-Nle)-S-D-C(3)-(1Nal)-L-Q-W-N-C(3)-P-F-D-D-Lys(DOTA)-CONH2] (Ac-[dNle]SDC[1Nal]LQWNCPFD[dK](DOTA)-NH2; disulfide 4-10): 0.35 nM.
For the compound `CC(=O)N[C@H](C)C(=O)N[C@@H](CO)C(=O)N[C@@H](CC(=O)O)C(=O)N[C@H]1CSSC[C@@H](C(=O)N2CCC[C@H]2C(=O)N[C@@H](Cc2ccccc2)C(=O)N[C@@H](CC(=O)O)C(=O)N[C@H](CCCCNC(=O)CN2CCN(CC(=O)O)CCN(CC(=O)O)CCN(CC(=O)O)CC2)C(N)=O)NC(=O)[C@H](CC(N)=O)NC(=O)[C@H](Cc2c[nH]c3ccccc23)NC(=O)[C@H](CCC(N)=O)NC(=O)[C@H](CC(C)C)NC(=O)[C@H](Cc2cccc3ccccc23)NC1=O` [compound 104, Ac-(D-Ala)-S-D-C(3)-(1Nal)-L-Q-W-N-C(3)-P-F-D-D-Lys(DOTA)-CONH2] (Ac-[dA]SDC[1Nal]LQWNCPFD[dK](DOTA)-NH2; disulfide 4-10), binding was put at a Kd of 0.35 nM.
The same measure for `CC(=O)N[C@H](C(=O)N[C@@H](CO)C(=O)N[C@@H](CC(=O)O)C(=O)N[C@H]1CSSC[C@@H](C(=O)N(C)[C@H](C)C(=O)N[C@@](C)(Cc2ccccc2)C(=O)N[C@@H](CC(=O)O)C(=O)N[C@H](CCCCNC(=O)CN2CCN(CC(=O)O)CCN(CC(=O)O)CCN(CC(=O)O)CC2)C(N)=O)NC(=O)[C@H](CC(N)=O)NC(=O)[C@H](Cc2c[nH]c3ccccc23)NC(=O)[C@H](CCC(N)=O)NC(=O)[C@H](CC(C)C)NC(=O)[C@H](Cc2cccc3ccccc23)NC1=O)C1CCCCC1` [compound 109, Ac-(Chg)-S-D-C(3)-(1Nal)-L-Q-W-N-C(3)-(NMeD-Ala)-(aMe-F)-D-D-Lys(DOTA)-CONH2] (Ac-[Chg]SDC[1Nal]LQWNC[dNMeA][αMeF]D[dK](DOTA)-NH2; disulfide 4-10): 0.96 nM.
The same measure for `CC(=O)N[C@H](C(=O)N[C@@H](CO)C(=O)N[C@@H](CC(=O)O)C(=O)N[C@H]1CSSC[C@@H](C(=O)N(C)[C@H](C)C(=O)N(C)[C@@H](Cc2ccccc2)C(=O)N[C@@H](CC(=O)O)C(=O)N[C@H](CCCCNC(=O)CN2CCN(CC(=O)O)CCN(CC(=O)O)CCN(CC(=O)O)CC2)C(N)=O)NC(=O)[C@H](CC(N)=O)NC(=O)[C@H](Cc2c[nH]c3ccccc23)NC(=O)[C@H](CCC(N)=O)NC(=O)[C@H](CC(C)C)NC(=O)[C@H](Cc2cccc3ccccc23)NC1=O)C1CCCCC1` [compound 110, Ac-(Chg)-S-D-C(3)-(1Nal)-L-Q-W-N-C(3)-(NMeD-Ala)-(NMe-F)-D-D-Lys(DOTA)-CONH2] (Ac-[Chg]SDC[1Nal]LQWNC[dNMeA][NMeF]D[dK](DOTA)-NH2; disulfide 4-10): greater than 30 nM; for `CC(=O)N[C@H](C(=O)N[C@@H](CO)C(=O)N[C@@H](CC(=O)O)C(=O)N[C@H]1CSSC[C@@H](C(=O)N2CCC[C@H]2C(=O)N[C@@H](Cc2ccccc2)C(=O)N[C@@H](CC(=O)O)C(=O)N[C@H](CCCCNC(=O)CN2CCN(CC(=O)O)CCN(CC(=O)O)CCN(CC(=O)O)CC2)C(N)=O)NC(=O)[C@H](CC(N)=O)NC(=O)[C@H](Cc2ccc3ccccc3c2)NC(=O)[C@H](CCC(N)=O)NC(=O)[C@H](CC(C)C)NC(=O)[C@H](Cc2cccc3ccccc23)NC1=O)C1CCCCC1` [compound 114, Ac-(Chg)-S-D-C(3)-(1Nal)-L-Q-(2Nal)-N-C(3)-P-F-D-D-Lys(DOTA)-CONH2] (Ac-[Chg]SDC[1Nal]LQ[2Nal]NCPFD[dK](DOTA)-NH2; disulfide 4-10): 0.38 nM; for `CC(=O)N[C@H](C(=O)N[C@@H](CO)C(=O)N[C@@H](CC(=O)O)C(=O)N[C@H]1CSSC[C@@H](C(=O)N2CCC[C@H]2C(=O)N[C@@H](Cc2ccccc2)C(=O)N[C@@H](CC(=O)O)C(=O)N[C@H](CCCCNC(=O)CN2CCN(CC(=O)O)CCN(CC(=O)O)CCN(CC(=O)O)CC2)C(N)=O)N(C)C(=O)[C@H](CC(N)=O)NC(=O)[C@H](Cc2c[nH]c3ccccc23)NC(=O)[C@H](CCC(N)=O)NC(=O)[C@H](CC(C)C)NC(=O)[C@H](Cc2cccc3ccccc23)NC1=O)C1CCCCC1` [compound 115, Ac-(Chg)-S-D-C(3)-(1Nal)-L-Q-W-N-(NMe-Cys)-P-F-D-D-Lys(DOTA)-CONH2] (Ac-[Chg]SDC[1Nal]LQWN[NMeC]PFD[dK](DOTA)-NH2; disulfide 4-10): greater than 100 nM.

(Values after patent US20250186541A1, “DLL3 TARGETING PEPTIDES AND CONSTRUCTS THEREOF” (MARIANA ONCOLOGY INC., priority 2023, published 2025).)
